Test results from paper PMC10813393 (Biomolecules, 2023).
Read-outs that look alike come from different tables or passages of the source.

Tests used:
[1] = tested on: o-SARS-CoV-2 spike pseudotyped virus particles (BA.2 lineage); format: cell-based; settings: luciferase 72 h post-transduction
[2] = tested on: α-SARS-CoV-2 spike pseudotyped virus particles; format: cell-based; settings: luciferase 72 h post-transduction
[3] = cell-pretreatment protocol: VERO cells with FA 20 μM or L7OG 5 μM for 2 h

| SMILES | entry of o-SARS-CoV-2 pseudovirus (in words) [1, 3] | entry of α-SARS-CoV-2 pseudovirus (in words) [2, 3] | entry of o-SARS-CoV-2 pseudovirus (in words) ([1]; […], VERO cells) | entry of α-SARS-CoV-2 pseudovirus (in words) ([2]; […], VERO cells) |
| --- | --- | --- | --- | --- |
| O=C(O)[C@H]1O[C@@H](Oc2cc(O)c3c(=O)cc(-c4ccc(O)c(O)c4)oc3c2)[C@H](O)[C@@H](O)[C@@H]1O [Compound L7OG, luteolin-7-O-glucuronide] | neither L7OG nor FA inhibited the entry | neither L7OG nor FA inhibited the entry |  |  |
| Nc1nc(=O)c2nc(CNc3ccc(C(=O)N[C@@H](CCC(=O)O)C(=O)O)cc3)cnc2[nH]1 [FA, folic acid, reference compound] | neither L7OG nor FA inhibited the entry | neither L7OG nor FA inhibited the entry | blocked the entry | blocked the entry |
